From patent US12527746B2, “Peptide/particle delivery systems” (The Johns Hopkins University, priority 2009, dated 2026)
Non-standard residues stand in square brackets, D forms with d. No end group written: not given here. Abu = CC[C@H](N)C(=O)O

Key:
endothelial cells [1] = assay: Endothelial cell proliferation, peptides encapsulated in polymeric particles vs free peptides; assay type: cell-based; conditions: encapsulated within polymeric particles compared to unencapsulated
Source text: Changes to polymer structure, including small changes to the ends of the polymer only, can vary biophysical properties of these particles. These properties can be important to tune for effective in vivo peptide delivery. A small subset of the potential polymer library was screened to measure the effect of encapsulating the antiangiogenic peptides chemokinostatin-1 and pentastatin-1 within polymeric particles compared to unencapsulated, free peptides. […] An example of representative polymers encapsulating peptides is provided in Scheme 5.

CNV laser mouse model = assay: CNV laser mouse model, intravitreous injection, choroidal flat mounts; assay type: in vivo, C57 BL/6 female mice; conditions: day 14
Source text: Referring now to FIG. 9 is shown in vivo 336 polymer nanoparticle/SP6001 DEAH peptide (“DEAH” disclosed as SEQ ID NO: 2484); Peptide-336 polymer nanoparticles were formulated as previously described and intravitreously injected to test in vivo efficacy. ACNV laser mouse model was used on C57 BL/6 female mice. The mice receive laser eye treatments on day zero, followed by the intravitreous injections. Mice are then perfused with fluorescein labeled dextran on day 14 and choroidal flat mounts (bottom) were analyzed via fluorescence microscopy.
Referring now to FIG. 49 in shown the in vivo effects of microparticle formulations in both the CNV and rho/VEGF model over time. DEAH (SP6001)-336 PBAE nanoparticle formulation made as described previously (“DEAH” disclosed as SEQ ID NO: 2484). […] (Middle) and (Bottom) A genetic model of wet form of age-related macular degeneration in mice used to test long-term effect of microparticles. […] While PLGA is used to form the microparticles used above, other polymers may be used including the synthetic polyesters and polyamides described above. […]

rho/VEGF (V6) mouse = assay: rho/VEGF (V6) mouse, genetic model of wet age-related macular degeneration; assay type: in vivo, mice; conditions: 8 weeks after injection
Source text: Referring now to FIG. 49 in shown the in vivo effects of microparticle formulations in both the CNV and rho/VEGF model over time. DEAH (SP6001)-336 PBAE nanoparticle formulation made as described previously (“DEAH” disclosed as SEQ ID NO: 2484). […] (Middle) and (Bottom) A genetic model of wet form of age-related macular degeneration in mice used to test long-term effect of microparticles. […] While PLGA is used to form the microparticles used above, other polymers may be used including the synthetic polyesters and polyamides described above. In certain embodiments, blends of these polymer are combined with PLGA to form microparticles with differing environmental sensitivity and release properties; (a) the effect of microparticle (SP-6001) in CNV model mouse; (b) the effect of microparticle (SP-6001) in rho/VEGF (V6) mouse, 1 week after injection; and (c) the effect of microparticle (SP-6001) in rho/VEGF (V6) mouse, 8 weeks after injection.

[2] = tested on: MDA-MB-231 tumor xenograft; assay: MDA-MB-231 breast cancer xenograft, orthotopic, i.p. peptide; design: species or system SCID mice; conditions: mouse, in vivo
Source text: BMC Cancer 2010; 10:29, and in a breast cancer xenograft model using MDA-MB-231 cells. Koskimaki J E, Karagiannis E D, Rosca E V, Vesuna F, Winnard P T, Jr., Raman V, et al. Peptides derived from type IV collagen, CXC chemokines, and thrombospondin-1 domain-containing proteins inhibit neovascularization and suppress tumor growth in MDA-MB-231 breast cancer xenografts. Neoplasia 2009; 11(12):1285-91.
Following orthotopic inoculation of SCID mice in the mammary fat pad area using 2×10^6 cells, tumors grew to approximately 100 mm^3 in 2 weeks; at that time 100 μL of peptide solution was injected i.p. once a day at peptide doses 10-20 mg/kg. PBS solution was injected as control. […] The microvessel density was determined by screening the immunohistologically stained CD31 sections. Inhibition of LEC migration in the ACEA migration assay also was determined (see FIG. 33B).

endothelial cells [3] = assay: Anti-proliferative and anti-migratory activity of free peptides on endothelial cells; assay type: cell-based
Source text: Several classes of peptides have been developed that show either anti-proliferative or anti-migratory activity or both on endothelial cells. These peptides appear to function through distinct mechanisms of action and have been tested both in vitro and in vivo in tumor xenografts and in ocular mouse models.
(§1) It is believed that this peptide is the first antilymphangiogenic peptide agent.

[4] = tested on: lymphatic endothelial cells; assay: Anti-proliferative and anti-migratory activity of free peptides on lymphatic endothelial cells; assay type: cell-based
Source text: as §1

Row | Substance | inhibition of endothelial cell proliferation (endothelial cells [1]) | anti-proliferative and anti-migratory activity (endothelial cells [3]) | also measured
1 | LRRFSTMPFMFCNINNVCNF [Pentastatin] | enhanced the ability of the peptides to inhibit the proliferation of endothelial cells |  | 
2 | NGRKACLNPASPIVKKIIEKMLNS [Chemokinostatin] | enhanced the ability of the peptides to inhibit the proliferation of endothelial cells |  | 
3 | EIELVEEEPPF [SP6001, 11-mer anti-angiogenic peptide derived from the serpin domain of DEAH box polypeptide] |  |  | angiogenesis in the eye (CNV laser mouse model): significantly reduced angiogenesis; inhibition of angiogenesis (rho/VEGF (V6) mouse): no longer inhibits angiogenesis; tumor xenograft growth [2]: significant inhibition
4 | LRRFSTMPFMF-Abu-NINNV-Abu-NF (LRRFSTMPFMF[Abu]NINNV[Abu]NF; listed as Homo sapiens) [SP2012] |  | highly potent anti-proliferative and anti-migratory | 
5 | LLRISLLLIESWLE [SP5033] |  | anti-proliferative and anti-migratory activity | anti-proliferative and anti-migratory activity [4]: anti-proliferative and anti-migratory activity
